Data published in US9650405B2, “Modified sophorolipids as oil solubilizing agents” (Polytechnic Institute of New York University, priority 2010, dated 2017).
Read-outs that look alike come from different tables or passages of the source.

Key:
[1] = Emulsion type: dilution test and oil soluble dye staining; format: physicochemical; details: for emulsion type by Oil Red O staining: 2%-by-weight relative to water phase, oil/water 5/5 and 7/3
Description: In this test the emulsion is diluted either with oil (O) or water (W). If the emulsion is O/W type and it is diluted with water, it will remain stable as water is the dispersion medium. However, if the emulsion is O/W type and it is diluted with oil, the emulsion will break as oil and water are not miscible with each other. […] Emulsions of the O/W type have separated layers after dilution with pure oil but form a homogenous phase when diluted by water. Unless otherwise specified, the emulsion type formed by MSLs were oil in water.
In FIG. 13B, the tube on the left was diluted with 1 mL of oil whereas the tube on right was diluted with water. Visual observation of the tubes in FIG. 13B supports that the emulsions formed are indeed O/W emulsions.
Oil Red O was applied as an oil soluble dye and emerald green as water soluble dye in the process of emulsion preparation. Observations of emulsions were made before and after staining under optical microscope at 400× magnification (FIG. 14). […] The formation of O/W emulsions and not W/O emulsions with this set of MSL compounds would not be obvious to one skilled in the art. We believe that O/W emulsions are formed by this set of MSLs due to that large sophorose polar head groups requires relatively more space than the lipid tails and, therefore self-assemble into spherical type structures where disaccharide groups are locating outside the droplets.

[2] = Crude oil emulsification activity (turbidity at 610 nm); details: emulsifier 1 mg/mL
Description: Emulsification activity was assessed using Louisiana Crude, Arabian Light Crude, and Prudhoe Bay Crude as the oil phase. A 2 mL solution with emulsifier concentration of 1 mg/mL was prepared. A crude oil (10 mg) was added to the emulsifier aqueous solution, the mixture was vortexed for one minute and the emulsified mixture was allowed to stand for 20 minutes. Emulsification activity was determined by measuring turbidity of the emulsion mixture in a spectrophotometer at 610 nm. The results obtained using SL-ethyl ester, SL-butyl ester, the natural sophorolipid mixture and Triton X-100 as emulsifiers are expressed as D610 and are listed in Table 8. […] Furthermore, a remarkable improvement in emulsification activity was obtained for SL-butyl ester relative to the natural sophorolipid mixture. These comparative results for emulsification of Louisiana Crude, Arabian Light Crude, and Prudhoe Bay Crude oil phase could not be anticipated by one skilled in the art.

[3] = Solubility in distilled water without additives, compounds alone and mixed; details: without any additives
[4] = SL-esters; from earlier publication in Colloids and surfaces, 2004, 240, 75; cited from earlier work
[5] = Crude oil clearing/displacement activity; details: 20 μL of 1 mg/mL solution
Description: Oil cleaning assays were performed using Louisiana Crude, Arabian Light Crude, and Prudhoe Bay Crude as the oil phase. In one study, the oil clearing/displacement activity of MSLs were assessed using a crude oil layer on top of sea water in order to simulate oil spill type conditions. Sea water (20 mL) was transferred to plastic Petri dishes and 20 μL of a crude oil type was added on top of the water to create an oil layer. Subsequently, a 20 μL aliquot of MSL solution (1 mg/mL) was added dropwise to the top of the oil layer. The instantaneous formation of an oil clearing zone as well as the diameter of the clearing zone was determined as a function of the dispersant used. […] Furthermore, the oil displacement activity of SL-ethyl ester and SL-butyl ester was slightly higher than Triton-X-100 for Arabian Light crude.

[6] = Emulsion stability based on phase separation; format: physicochemical; details: for emulsion layer percentage: paraffin oil/water 5/5, 2%-by-weight emulsifier, after 24 hours at 25° C.
Description: The emulsion was obtained by homogenizing the oil and water mixture and was allowed to settle at room temperature for 24 hours. […] Then, this mixture was homogenized at 13,000 rpm for 2 minutes. Thereafter, the resulting emulsion was left unagitated at 25° C. for 24 hours. Surfactants which give a larger emulsion phase are denoted as having higher emulsion effectiveness (Process Safety and Environment protection, 2005, 83, 38-46). […] Thus, unexpectedly, that longer alkyl chains, at least up to butyl and hexyl, provided improved interfacial stability at the paraffin oil/water interface. […] Apparently, ester bonds of SL-esters are less disruptive to organization at the oil water interface than amide bonds of SL-amides. […] The acidic SL (3) gave an 8% emulsion layer, much lower than the MSL examples given herein. Similarly, the natural SL (1) mixture gave a 10% emulsion layer. This performance is also far below that of SL-butyl amide (24), hexyl amide (25), butyl ester (8) and hexyl ester (16).
After homogenized at 13,000 rpm for 2 minutes, the emulsions were kept at room temperature and separation of the respective oil, emulsion and water layers was recorded for up to 1 month.

[7] = Solubility of MSLs in water
Source text: If the material precipitates upon cooling or was to some extent insoluble, the insoluble material was separated by filtration, dried and weighed.

[8] = Emulsion droplet size distribution, Coulter LS 230 analyzer; format: physicochemical; details: paraffin oil-to-water 7:3 v/v, 25° C.
Description: Emulsified oil droplet size (average and standard deviation) was measured after suitable dilution of the emulsion phase using a Coulter LS 230 analyzer. […] Relative to natural and lactonic SL, selected MSLs show improved properties as emulsifiers on paraffin oil.
After being aged for 3-months, emulsified oil droplet size (average and standard deviation) was measured after suitable dilution of the emulsion phase using a Coulter LS 230 analyzer and the results are listed in Table 5. […] However, increasing the surfactant concentration from 1 to 2% did result in substantially smaller emulsion-phase droplet sizes. […] This is evidence that MSL's can stabilize oil phases greatly decreasing their tendency to undergo coalescence. […] It follows that the results of 3-month aging studies support the utility of selected MSLs for formation and stabilization of oil-in-water emulsions of paraffin oil phases. One skilled in the art would expect that the ability of these MSLs to stabilize paraffin oil phases teaches that they would also stabilize oil phases of similar structure.

[9] = Surface tension versus surfactant concentration: CMC and minimum surface tension; format: physicochemical; details: SL-amides; 25° C.
Description: The surface tension change with the increase of surfactant concentration of a series of SL amides was measured at 25° C. and the results are shown in Table 2. CMC and minimum surface tension (MST) decrease as the chain length of the n-alkyl amide moiety increase. […] This trend can be explained by the increased hydrophobicity of the surfactant hydrophobic tail with increased chain length of the n-alkyl amide.
The relation of CMC within a homologous series of surfactants and the carbon chain length (straight-chain), n, is usually described as: Log (CMC)=A−Bn (1)
Where A and B are constants specific to the series and n is the carbon on the hydrophobic chains. It was reported that the CMC of alkyl-β-D-glucoside decreased by ⅓ for each additional CH2 group (L. Zhang. D.E.S. Thesis, Columbia University). For a series of SL-esters prepared from n-alkanols of varying chain length, the CMC decreased by ½ per additional CH2 group (L. Zhang Colloid Surface, 240, 2004, 75).

[10] = Emulsion viscosity measurement; format: physicochemical; details: oil/water 7/3, 1% MSL, shear rate 1 S^−1
Description: Viscosity was measured at 25° C. with increasing shear rate from 1 S^−1 to 750 S^−1. The viscosity change was monitored for aging times up to 3 months. For all samples, the paraffin oil/water ratio is 7/3 and the surfactant concentrations studied were 0.5%, 1% to 2%-by-weight relative to the oil phase. FIG. 19 presents the viscosity change with shear rate for different aging times. […] The emulsion tested was prepared using 2%-by-weight SL-butyl ester relative to paraffin oil. Viscosity decreases with increased shear rate implying the emulsion follows shear shinning. Furthermore, viscosity decreased with increased storage time. […] This change is consistent with the small increase in oil phase particle size (1.7 to 2.1 μm) with aging from 1 day to 3-months (Tables 4 and 5).
Values of ηlow decreased with storage time to various extents that are dependent on the MSL compound used to stabilize the emulsion. […] The relative ability of different MSL structures to stabilize emulsions and thereby decrease the extent of decrease in viscosity as a function of aging time would not be predictable by one skilled in the art. The behavior as a function of MSL structure is related to emulsion dispersed phase droplet size. That is, the smaller the change in droplet size, the less decrease in emulsion viscosity occurs with increased aging time. Smaller changes in droplet size reflects the ability of the emulsifier to better stabilize particles. For example, the viscosity of the emulsion stabilized by SL-butyl amide decreased by 65% (from 344 Pas to 120 Pas) whereas the viscosity of the emulsion stabilized by SL-hexyl ester decreased by 20% (from 457 Pas to […]).
The viscosity was measured 24 hours after emulsion preparation. The viscosity increased with increasing surfactant concentration. Such behavior could not have been predicted by one skilled in the art without the teaching provided in this disclosure. The extent of viscosity change with surfactant concentration is related to the interfacial free energy at the droplet surface that reduces with the increase of surfactant concentration.

[11] = Arabian Light Crude on sea water

SMILES | emulsion type by Oil Red O staining [1] | solubility in distilled water [3] | CMC Range [4] | MST (minimum surface tension) [4] [mN/m] | Oil displacement activity (diameter of the clearing zone) [5, 11] [cm] | Oil displacement activity (diameter of the clearing zone) ([5]; Louisiana Crude on sea water) [cm] | Oil displacement activity (diameter of the clearing zone) ([5]; Prudhoe Bay Crude on sea water) [cm] | emulsion layer percentage [6] | Solubility [7] [µg/mL] | Average droplet size ([8]; 0.5 weight %, 24 hours) [μm] | Average droplet size ([8]; 0.5 weight %, aged 3-months) [μm] | Average droplet size ([8]; 1 weight %, 24 hours) [μm] | Average droplet size ([8]; 1 weight %, aged 3-months) [μm] | Average droplet size ([8]; 2 weight %, 24 hours) [μm] | Average droplet size ([8]; 2 weight %, aged 3-months) [μm] | CMC Range [9] | MST (minimum surface tension) [9] [mN/m] | Solubility ([7]; distilled water, 25° C.) [µg/mL] | other results
CCOC(=O)CCCCCCCC=CCCCCCCC(C)OC1OC(CO)C(O)C(O)C1OC1OC(CO)C(O)C(O)C1O (stereo not drawn) [Compound 7, SL-Ethyl Ester] | O/W | less than 1 mg/L | 36-40 10^−6M | 37.5 | 6.5 ± 0.2 | 6.3 ± 0.9 | 6.6 ± 0.7 | no emulsion layer was observed | <3000 |  |  |  |  |  |  |  |  |  | Emulsification activity (D610) ([2]; Arabian Crude): 0.91; Emulsification activity (D610) ([2]; Louisiana Crude): 0.42; Emulsification activity (D610) ([2]; Prudhoe Crude): 0.32
CCCCCCNC(=O)CCCCCCCC=CCCCCCCC(C)OC1OC(CO)C(O)C(O)C1OC1OC(CO)C(O)C(O)C1O (stereo not drawn) [Compound 25, SL-Hexyl Amide] | O/W |  |  |  |  |  |  | 60% |  | 2.7 ± 0.4 | 4.0 ± 0.4 | 2.7 ± 0.2 | 3.7 ± 0.7 | 1.7 ± 0.1 | 2.2 ± 0.5 | 29-32 10^−6M | 36.5 | <11000 | emulsion type by dilution test ([1]; 2 weight % emulsifier, water/oil ratio 5/5, paraffin): O/W emulsions; emulsion layer volume-%, one month ([6]; oil/water 5/5, 2%-by-weight, one month at room temperature): 10%; emulsion layer volume-%, start ([6]; oil/water 5/5, 2%-by-weight, start of aging): 65%
COC(=O)CCCCCCCC=CCCCCCCC(C)OC1OC(CO)C(O)C(O)C1OC1OC(CO)C(O)C(O)C1O (stereo not drawn) [Compound 6, SL-Methyl Ester] | O/W | less than 1 mg/L | 95-100 10^−6M | 38.4 | 5.5 ± 0.1 | 6.5 ± 0.4 | 6.9 ± 0.1 | no emulsion layer was observed |  |  |  |  |  |  |  |  |  | <1000 | Solubility ([7]; distilled water, 25° C., listed as methyl ester): < 1000 µg/mL
CNC(=O)CCCCCCCC=CCCCCCCC(C)OC1OC(CO)C(O)C(O)C1OC1OC(CO)C(O)C(O)C1O (stereo not drawn) [Compound 22, SL-Methyl Amide] | O/W |  |  |  |  |  |  | no emulsion layer was observed |  |  |  |  |  |  |  | 650-670 10^−6M | 43.3 |  | 
CCNC(=O)CCCCCCCC=CCCCCCCC(C)OC1OC(CO)C(O)C(O)C1OC1OC(CO)C(O)C(O)C1O (stereo not drawn) [Compound 23, SL-Ethyl Amide] | O/W |  |  |  |  |  |  | no emulsion layer was observed | >40000 |  |  |  |  |  |  | 300-310 10^−6M | 40.9 |  | 
CCCCNC(=O)CCCCCCCC=CCCCCCCC(C)OC1OC(CO)C(O)C(O)C1OC1OC(CO)C(O)C(O)C1O (stereo not drawn) [Compound 24, SL-Butyl Amide] | O/W |  |  |  |  |  |  | 20% | >40000 | 3.0 ± 0.2 | 6.3 ± 1.0 | 2.5 ± 0.2 | 4.7 ± 0.8 | 1.9 ± 0.1 | 3.0 ± 0.4 | 45-50 10^−6M | 38.7 |  | emulsion layer in 3 days ([6]; oil/water 5/5, 2%-by-weight, 3 days): not observed in 3 days; low shear emulsion viscosity, after aging period [10]: 120 Pas; low shear emulsion viscosity, before aging [10]: 344 Pas; viscosity decrease over the aging period [10]: 65%
